Laboratory results published in patent US20090118350A1, “Biomarkers for Identifying Efficacy of Tegaserod in Patients with Chronic Constipation” (priority 2005, published 2009).

Tested on: patients with chronic constipation
Assay: Clinical trial, secondary efficacy RESP12: increase of 1 or more CSBM/week over baseline after 12 weeks of treatment, by subgroup and genotype
Type: in vivo, human
Conditions: for Odds Ratio (T6 v P) / % Responders T6: 6-mg bid
Description: Introduction. A clinical trial was performed to evaluate the efficacy of tegaserod (Zelmac®/Zelnorm™) at 6 mg bid (12 mg/day) or 2 mg bid (4 mg/day) vs. placebo by measuring the number of complete spontaneous bowel movements (CSBM) during the first 4 weeks of treatment. Secondary objectives included evaluating the number of CSBM during the entire 12-week treatment period, bowel habits, laxative use, and safety and tolerability issues. The clinical trial design consisted of a 2-week baseline period without medication, a 12-week, randomized, double-blind, placebo-controlled treatment period, and a 4-week withdrawal period without study medication. As part of the clinical trial, DNA was collected from patients at screening for pharmacogenetic analysis to evaluate genetic polymorphisms relating to drug targets and disease aetiology.
Clinical assessments. […] The primary efficacy endpoint evaluated was the increase of 1 or more CSBM/week over baseline after 4 weeks of treatment. A secondary endpoint evaluated in this genotyping study was RESP12, the increase of 1 of more CSBM/week over baseline after 12 weeks of treatment. Patients were classified as responders if they met these criteria and had completed at least 7 days of treatment. Additional secondary efficacy assessments were evaluated based on the weekly diary assessments, such as bothersome constipation, bothersome abdominal pain, and satisfaction with bowel habits at the end of the 12-week treatment period (using the baseline value as a co-variant for analysis).
Statistical analysis. Statistical analysis was performed using SAS version 8.2 (The SAS Institute, Cary, N.C., USA). Analysis methods included Fisher's Exact tests, analysis of Covariance (ANCOVA), logistic regression, and Mantel-Haenzel tests to determine odds ratios and 95% confidence intervals, with significance established at p<0.05. Calculation of linkage disequilibrium was performed using the GOLD (graphical overview of linkage disequilibrium) method described by Abecasis & Cookson, Bioinformatics 16: 182-3 (2000).
Secondary efficacy endpoint: response after 12 weeks of treatment. The same comparison as above was performed using the secondary efficacy endpoint of a mean increase of 1 or more CSBM/week over baseline after 12 weeks of treatment. The results for the 12 individual “high responder” SNPs are presented in TABLE 9 and the results using the comparison of individuals with or without at least one of the twelve SNPs is presented in TABLE 10.

[1] = M + F (<65), 0-12 of the 12 SNPs
[2] = M + F (<65), 1-12 of the 12 SNPs
[3] = M + F (>=65), 0-12 of the 12 SNPs
[4] = M + F (>=65), 1-12 of the 12 SNPs
[5] = M + F (All ages), 0-12 of the 12 SNPs
[6] = M + F (All ages), 0 of the 12 SNPs
[7] = M + F (All ages), 1-12 of the 12 SNPs
[8] = Male (All ages), 0-12 of the 12 SNPs
[9] = Male (All ages), 0 of the 12 SNPs
[10] = Male (All ages), 1-12 of the 12 SNPs

[H]/N=C(/NCCCCC)N/N=C/c1c[nH]c2ccc(OC)cc12 [tegaserod, Tegaserod]
Odds Ratio (T6 v P) (HTR4 (3753) genotype CC): 3.1
% Responders T6 (HTR4 (3753) genotype CT): 50%
Odds Ratio (T6 v P) (HTR4 (3753) genotype CT): 2.7
% Responders T6 (HTR4 (3753) genotype TT): 70%
Odds Ratio (T6 v P) (HTR4 (3753) genotype TT): 3.5
% Responders T6 (HTR4 (3754) genotype AA): 50%
Odds Ratio (T6 v P) (HTR4 (3754) genotype AA): 4.1
% Responders T6 (HTR4 (3754) genotype AT): 45%
Odds Ratio (T6 v P) (HTR4 (3754) genotype AT): 2.0
% Responders T6 (HTR4 (3754) genotype TT): 63%
Odds Ratio (T6 v P) (HTR4 (3754) genotype TT): 2.8
% Responders T6 (HTR4 (3756) genotype AA): 39%
Odds Ratio (T6 v P) (HTR4 (3756) genotype AA): 2.6
% Responders T6 (HTR4 (3756) genotype AC): 54%
Odds Ratio (T6 v P) (HTR4 (3756) genotype AC): 3.0
% Responders T6 (HTR4 (3756) genotype CC): 71%
Odds Ratio (T6 v P) (HTR4 (3756) genotype CC): 4.6
% Responders T6 [1]: 49%
Odds Ratio (T6 v P) [1]: 3.0
% Responders T6 (M + F (<65), 0 of the 12 SNPs): 37%
Odds Ratio (T6 v P) (M + F (<65), 0 of the 12 SNPs): 1.6
% Responders T6 [2]: 62%
Odds Ratio (T6 v P) [2]: 5.6
% Responders T6 [3]: 53%
Odds Ratio (T6 v P) [3]: 2.3
% Responders T6 (M + F (>=65), 0 of the 12 SNPs): 29%
Odds Ratio (T6 v P) (M + F (>=65), 0 of the 12 SNPs): 0.4
% Responders T6 [4]: 70%
Odds Ratio (T6 v P) [4]: 10.1
% Responders T6 [5]: 49%
Odds Ratio (T6 v P) [5]: 2.8
% Responders T6 [6]: 36%
Odds Ratio (T6 v P) [6]: 1.3
% Responders T6 [7]: 63%
Odds Ratio (T6 v P) [7]: 6.0
% Responders T6 (MLN (1783) genotype CC): 49%
Odds Ratio (T6 v P) (MLN (1783) genotype CC): 2.6
% Responders T6 (MLN (1783) genotype CT): 44%
Odds Ratio (T6 v P) (MLN (1783) genotype CT): 2.2
% Responders T6 (MLN (1783) genotype TT): 67%
Odds Ratio (T6 v P) (MLN (1783) genotype TT): 12.0
% Responders T6 [8]: 57%
Odds Ratio (T6 v P) [8]: 3.0
% Responders T6 [9]: 40%
Odds Ratio (T6 v P) [9]: 0.8
% Responders T6 [10]: 73%
Odds Ratio (T6 v P) [10]: 13.3
% Responders T6 (SCNN1A (3806) genotype GG): 62%
Odds Ratio (T6 v P) (SCNN1A (3806) genotype GG): 5.9
% Responders T6 (SCNN1A (3806) genotype GT): 49%
Odds Ratio (T6 v P) (SCNN1A (3806) genotype GT): 2.6
% Responders T6 (SCNN1A (3806) genotype TT): 44%
Odds Ratio (T6 v P) (SCNN1A (3806) genotype TT): 2.2
% Responders T6 (SLC12A2 (1842) genotype AA): 54%
Odds Ratio (T6 v P) (SLC12A2 (1842) genotype AA): 6.2
% Responders T6 (SLC12A2 (1842) genotype AG): 47%
Odds Ratio (T6 v P) (SLC12A2 (1842) genotype AG): 2.7
% Responders T6 (SLC12A2 (1842) genotype GG): 50%
Odds Ratio (T6 v P) (SLC12A2 (1842) genotype GG): 2.5
% Responders T6 (SLC12A2 (3801) genotype CC): 58%
Odds Ratio (T6 v P) (SLC12A2 (3801) genotype CC): 7.9
% Responders T6 (SLC12A2 (3801) genotype CT): 49%
Odds Ratio (T6 v P) (SLC12A2 (3801) genotype CT): 2.4
% Responders T6 (SLC12A2 (3801) genotype TT): 50%
Odds Ratio (T6 v P) (SLC12A2 (3801) genotype TT): 2.9
% Responders T6 (TPH1 (1756) genotype GG): 51%
Odds Ratio (T6 v P) (TPH1 (1756) genotype GG): 6.1
% Responders T6 (TPH1 (1756) genotype GT): 51%
Odds Ratio (T6 v P) (TPH1 (1756) genotype GT): 2.4
% Responders T6 (TPH1 (1756) genotype TT): 45%
Odds Ratio (T6 v P) (TPH1 (1756) genotype TT): 2.2
% Responders T6 (TPH1 (3784) genotype CC): 41%
Odds Ratio (T6 v P) (TPH1 (3784) genotype CC): 1.9
% Responders T6 (TPH1 (3784) genotype CT): 52%
Odds Ratio (T6 v P) (TPH1 (3784) genotype CT): 2.5
% Responders T6 (TPH1 (3784) genotype TT): 51%
Odds Ratio (T6 v P) (TPH1 (3784) genotype TT): 5.8
% Responders T6 (all genotypes): 49%
Odds Ratio (T6 v P) (all genotypes): 2.8
% Responders T6 (all genotypes (Table 11)): 49%
Odds Ratio (T6 v P) (all genotypes (Table 11)): 2.8
response rate (high responder genotypes of HTR4, tegaserod-treated patients): > 60%
